Results as given in PMC4890535, “On the Kinetic and Allosteric Regulatory Properties of the ADP-Glucose Pyrophosphorylase from Rhodococcus jostii: An Approach to Evaluate Glycogen Metabolism in Oleaginous Bacteria” (Frontiers in Microbiology, 2016).
Where two headings read alike, the source gives them in different places.

Key:
[1] = molecular target: T1, R. jostii ADP-Glc PPase (RjoGlgC) (Rhodococcus jostii, UniProt Q0S3Y4); assay: colorimetric Pi release (Malachite Green) assay of ADP-Glc synthesis, Hill fit; assay type: biochemical
T1 construct: gene glgC; full length, N-terminal His-tag (pET28c), E. coli BL21(DE3) with GroEL/GroES; start GTG changed to ATG, primer encodes MRSQPHV; homotetramer 190 kDa
T1 sequence (Q0S3Y4 1-404): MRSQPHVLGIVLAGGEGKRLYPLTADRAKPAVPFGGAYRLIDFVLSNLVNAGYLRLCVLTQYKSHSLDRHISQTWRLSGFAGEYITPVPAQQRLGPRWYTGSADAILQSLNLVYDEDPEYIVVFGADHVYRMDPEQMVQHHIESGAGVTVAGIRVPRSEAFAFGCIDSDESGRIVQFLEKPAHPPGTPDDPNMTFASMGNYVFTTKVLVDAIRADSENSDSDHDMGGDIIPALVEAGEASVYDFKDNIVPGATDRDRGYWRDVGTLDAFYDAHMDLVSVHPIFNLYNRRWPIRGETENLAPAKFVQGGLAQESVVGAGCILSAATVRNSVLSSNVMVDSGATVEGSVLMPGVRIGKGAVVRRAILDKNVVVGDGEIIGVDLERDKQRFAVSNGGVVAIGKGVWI
Excerpt: colorimetric Pi release (Malachite Green) assay of ADP-Glc synthesis, Hill fit on R. jostii ADP-Glc PPase (RjoGlgC)

[2] = molecular target: T1, R. jostii ADP-Glc PPase (RjoGlgC); assay: as above; assay type: biochemical; details: no activator; co-substrate ATP; 5 mM MgCl2, pH 8.0, 37°C; read-out: S0.5
[3] = substrate: Nc1ncnc2c1ncn2[C@@H]1O[C@H](COP(=O)(O)OP(=O)(O)OP(=O)(O)O)[C@@H](O)[C@H]1O; assay: as above; assay type: biochemical, Rhodococcus jostii; details: no activator, co-substrate Glc-1P saturating, 5 mM MgCl2, pH 8.0, 37°C
[4] = substrate: O=P(O)(O)O[C@H]1O[C@H](CO)[C@@H](O)[C@H](O)[C@H]1O; assay: as above; assay type: biochemical, Rhodococcus jostii; details: no activator, co-substrate ATP saturating, 5 mM MgCl2, pH 8.0, 37°C
[5] = molecular target: the molecule itself; assay: SEC; Superdex 200 size exclusion chromatography of the purified enzyme; data not shown
[6] = allosteric activator; 5 mM MgCl2, ATP and Glc-1P, pH 8.0, 37°C; read-out: A0.5

C=C(OP(=O)(O)O)C(=O)O [PEP]
EC50 ([1]; read-out: A0.5): 300 ± 200 µM

O=P(O)(O)OC[C@H]1OC(O)(CO)[C@@H](O)[C@@H]1O (stereo partly drawn) [Fru-6P]
EC50 [1, 6]: 2200 ± 100 µM

N[C@H]1[C@@H](OP(=O)(O)O)O[C@H](CO)[C@@H](O)[C@@H]1O [GlcN-1P]
Km [2]: > 6 mM

O=P(O)(O)OC[C@H]1OC(O)[C@H](O)[C@@H](O)[C@@H]1O (stereo partly drawn) [Glc-6P]
EC50 ([1]; read-out: A0.5; allosteric activator; 5 mM MgCl2, ATP and Glc-1P, pH 8.0, 37°C): 88 ± 5 µM

O=P(O)(O)OC[C@H]1OC(O)[C@H](O)[C@@H]1O (stereo partly drawn) [Rib-5P]
EC50 [1, 6]: 4000 ± 500 µM

O=P(O)(O)OC[C@H]1OC(O)[C@@H](O)[C@@H](O)[C@@H]1O (stereo partly drawn) [Man-6P]
EC50 [1, 6]: 56 ± 5 µM

B1: ADP-glucose pyrophosphorylase from Rhodococcus jostii RHA1 (enzyme, UniProt Q0S3Y4 1-404, looked up)
chain: MRSQPHVLGIVLAGGEGKRLYPLTADRAKPAVPFGGAYRLIDFVLSNLVNAGYLRLCVLTQYKSHSLDRHISQTWRLSGFAGEYITPVPAQQRLGPRWYTGSADAILQSLNLVYDEDPEYIVVFGADHVYRMDPEQMVQHHIESGAGVTVAGIRVPRSEAFAFGCIDSDESGRIVQFLEKPAHPPGTPDDPNMTFASMGNYVFTTKVLVDAIRADSENSDSDHDMGGDIIPALVEAGEASVYDFKDNIVPGATDRDRGYWRDVGTLDAFYDAHMDLVSVHPIFNLYNRRWPIRGETENLAPAKFVQGGLAQESVVGAGCILSAATVRNSVLSSNVMVDSGATVEGSVLMPGVRIGKGAVVRRAILDKNVVVGDGEIIGVDLERDKQRFAVSNGGVVAIGKGVWI
notes: ADP-glucose pyrophosphorylase (EC 2.7.7.27), product of glgC of Rhodococcus jostii RHA1; gene of 1,215 bp, theoretical molecular mass 43.85 kDa; amplified with primers from the initiation codon (changed from GTG to ATG) to downstream of the stop codon; Homotetramer by size exclusion chromatography; also called R. jostii ADP-Glc PPase; ADP-Glc PPase; source: E. coli BL21 (DE3) harboring pGro7 …
K0.5 [3]: 1.2 ± 0.1 mM | K0.5 [4]: 1.8 ± 0.2 mM | stoichiometry N [5]: 4
